For 19 compounds, Dmax results are on record in patent US20250205344A1, “2,4-DIOXOTETRAHYDROPYRIMIDINYL DERATIVES AS DEGRONS IN PROTACS” (GLAXOSMITHKLINE INTELLECTUAL PROPERTY DEVELOPMENT LIMITED, priority 2022, published 2025).

The test has as its target T1, Androgen Receptor (Homo sapiens, UniProt P10275, T878A).
T1 construct: the AR gene was modified, using CRISPR/Cas9 editing, so the expressed AR protein included an 11 amino acid HiBiT tag; endogenous in cells; host or cells: clonal LnCaP-derived line, AR gene edited by CRISPR/Cas9
The test is described as follows: Androgen Receptor Degradation Assay (Nano-Glo HiBiT). Type of test: cell-based. As to conditions: LNCaP, 18 h, HiBiT-tagged AR in human LnCaP cells, read-out: mean asymptote max. Put shortly: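 LnCaP cells with CRISPR-knocked-in N-terminal HiBiT-tagged AR (10,000/well) treated 18 h at 37 °C with PROTACs over 11 threefold concentrations; lytic HiBiT luminescence normalised to DMSO (0%) and cell-free (100%) controls. Relative DC50 = 4-parameter fit inflection; absolute DC50 = 50% degradation interpolation; Dmax = maximum observed degradation.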
(The HiBiT peptide binds its large partner to form an active luciferase.)

SMILES strings stand for the structures. Counter-ions that a name gives are not always drawn. Some results are limits rather than exact numbers.

T1 sequence (P10275 whole entry T878A): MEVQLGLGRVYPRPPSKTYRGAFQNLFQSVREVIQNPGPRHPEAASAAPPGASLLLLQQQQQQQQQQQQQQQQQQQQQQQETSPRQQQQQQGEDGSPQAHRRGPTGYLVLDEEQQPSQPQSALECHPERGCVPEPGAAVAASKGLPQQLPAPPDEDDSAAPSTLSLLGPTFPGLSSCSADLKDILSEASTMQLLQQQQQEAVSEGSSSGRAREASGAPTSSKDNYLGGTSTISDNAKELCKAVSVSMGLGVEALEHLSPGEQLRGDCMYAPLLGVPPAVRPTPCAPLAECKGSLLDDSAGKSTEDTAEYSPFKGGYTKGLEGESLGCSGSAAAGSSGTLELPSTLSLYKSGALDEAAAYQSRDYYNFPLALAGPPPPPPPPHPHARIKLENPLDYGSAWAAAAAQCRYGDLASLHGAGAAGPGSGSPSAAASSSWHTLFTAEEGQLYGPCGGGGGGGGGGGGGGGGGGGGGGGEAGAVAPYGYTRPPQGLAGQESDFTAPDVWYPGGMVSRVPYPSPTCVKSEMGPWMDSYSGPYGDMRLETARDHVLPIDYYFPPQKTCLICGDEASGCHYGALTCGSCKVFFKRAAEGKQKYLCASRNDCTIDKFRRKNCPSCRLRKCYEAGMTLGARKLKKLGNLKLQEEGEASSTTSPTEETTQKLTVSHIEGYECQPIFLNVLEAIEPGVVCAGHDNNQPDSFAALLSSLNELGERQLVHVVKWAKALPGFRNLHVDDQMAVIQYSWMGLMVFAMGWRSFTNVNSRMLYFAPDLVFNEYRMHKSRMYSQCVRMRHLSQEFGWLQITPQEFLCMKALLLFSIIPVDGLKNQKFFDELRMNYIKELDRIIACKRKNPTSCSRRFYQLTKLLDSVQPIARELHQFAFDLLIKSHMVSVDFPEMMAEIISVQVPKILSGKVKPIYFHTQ
T1 sequence (Q96SW2 whole entry partner): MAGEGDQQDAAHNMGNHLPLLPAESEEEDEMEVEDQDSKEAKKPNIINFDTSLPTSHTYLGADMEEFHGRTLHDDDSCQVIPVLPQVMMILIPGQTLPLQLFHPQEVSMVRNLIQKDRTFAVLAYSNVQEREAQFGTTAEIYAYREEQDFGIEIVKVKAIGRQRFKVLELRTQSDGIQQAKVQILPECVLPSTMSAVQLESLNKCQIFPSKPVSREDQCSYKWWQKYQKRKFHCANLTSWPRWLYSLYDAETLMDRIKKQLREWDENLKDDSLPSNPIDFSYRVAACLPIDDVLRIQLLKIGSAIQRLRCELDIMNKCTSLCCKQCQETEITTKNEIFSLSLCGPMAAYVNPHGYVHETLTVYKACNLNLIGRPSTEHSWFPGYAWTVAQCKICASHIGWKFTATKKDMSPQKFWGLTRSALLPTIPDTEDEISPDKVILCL
T1 sequence (Q16531 whole entry partner): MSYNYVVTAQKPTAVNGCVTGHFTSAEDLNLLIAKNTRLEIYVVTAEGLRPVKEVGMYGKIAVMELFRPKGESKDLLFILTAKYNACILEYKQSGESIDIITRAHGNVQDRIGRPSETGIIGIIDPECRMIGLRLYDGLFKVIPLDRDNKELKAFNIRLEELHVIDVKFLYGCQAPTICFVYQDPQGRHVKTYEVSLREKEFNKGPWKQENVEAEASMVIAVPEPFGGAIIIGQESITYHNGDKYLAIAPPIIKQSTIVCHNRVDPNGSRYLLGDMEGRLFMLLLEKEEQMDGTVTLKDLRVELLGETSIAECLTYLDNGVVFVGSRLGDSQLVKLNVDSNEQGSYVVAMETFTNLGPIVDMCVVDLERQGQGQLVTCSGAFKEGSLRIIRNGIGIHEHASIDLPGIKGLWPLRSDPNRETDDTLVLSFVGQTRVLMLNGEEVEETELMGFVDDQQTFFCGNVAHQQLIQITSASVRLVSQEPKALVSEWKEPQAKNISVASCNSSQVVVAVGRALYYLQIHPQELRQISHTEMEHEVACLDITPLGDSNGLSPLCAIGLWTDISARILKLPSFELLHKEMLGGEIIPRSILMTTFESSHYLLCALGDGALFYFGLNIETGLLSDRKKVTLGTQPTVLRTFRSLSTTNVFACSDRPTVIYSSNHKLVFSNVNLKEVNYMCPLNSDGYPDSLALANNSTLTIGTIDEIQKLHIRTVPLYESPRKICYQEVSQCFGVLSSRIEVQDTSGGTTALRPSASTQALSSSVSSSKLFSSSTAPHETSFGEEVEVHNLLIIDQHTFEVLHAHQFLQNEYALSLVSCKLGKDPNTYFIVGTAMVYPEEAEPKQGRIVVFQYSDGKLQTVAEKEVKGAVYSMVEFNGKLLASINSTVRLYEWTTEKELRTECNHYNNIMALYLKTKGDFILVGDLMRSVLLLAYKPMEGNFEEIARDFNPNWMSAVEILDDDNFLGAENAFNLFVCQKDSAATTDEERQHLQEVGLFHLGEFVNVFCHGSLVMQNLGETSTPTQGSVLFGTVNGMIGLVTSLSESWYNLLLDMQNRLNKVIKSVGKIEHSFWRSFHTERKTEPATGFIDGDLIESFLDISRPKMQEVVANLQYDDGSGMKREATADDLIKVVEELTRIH

Turning to `N#Cc1ccc(O[C@H]2CC[C@H](NC(=O)c3ccc(N4CCC(CN5CC[C@@H](n6ccc7c(N8CCC(=O)NC8=O)cccc76)[C@H](F)C5)CC4)nn3)CC2)cc1Cl` [EAR144, N-((1r,4r)-4-(3-Chloro-4-cyanophenoxy)cyclohexyl)-6-(4-(((3R,4R)-4-(4-(2,4-dioxotetrahydropyrimidin-1(2H)-yl)-1H-indol-1-yl)-3-fluoropiperidin-1-yl)methyl)piperidin-1-yl)pyridazine-3-carboxamide, hydrochloride], the Dmax was no less than 50%.

Take `N#Cc1ccc(O[C@H]2CC[C@H](NC(=O)c3ccc(N4CCC(CN5CC[C@H](n6ccc7c(N8CCC(=O)NC8=O)cccc76)[C@H](F)C5)CC4)nn3)CC2)cc1Cl` [EAR156, N-((1r,4r)-4-(3-Chloro-4-cyanophenoxy)cyclohexyl)-6-(4-(((3R,4S)-4-(4-(2,4-dioxotetrahydropyrimidin-1(2H)-yl)-1H-indol-1-yl)-3-fluoropiperidin-1-yl)methyl)piperidin-1-yl)pyridazine-3-carboxamide, hydrochloride]: the Dmax is no less than 50%.

On to `N#Cc1ccc(O[C@H]2CC[C@H](NC(=O)c3ccc(N4CCN(CC5CCC(n6ccc7c(N8CCC(=O)NC8=O)cccc76)CC5)CC4)nn3)CC2)cc1Cl` (stereo partly shown) [EAR194, N-((1r,4r)-4-(3-Chloro-4-cyanophenoxy)cyclohexyl)-6-(4-((4-(4-(2,4-dioxotetrahydropyrimidin-1(2H)-yl)-1H-indol-1-yl)cyclohexyl)methyl)piperazin-1-yl)pyridazine-3-carboxamide, trifluoroacetic acid salt], for which the Dmax was no less than 50%.

On to `N#Cc1ccc(O[C@H]2CC[C@H](NC(=O)c3ccc(N4CCC(CN5CCC(n6ncc7c(N8CCC(=O)NC8=O)nccc76)CC5)CC4)nn3)CC2)cc1Cl` [EAR51, N-((1r,4r)-4-(3-Chloro-4-cyanophenoxy)cyclohexyl)-6-(4-((4-(4-(2,4-dioxotetrahydropyrimidin-1(2H)-yl)-1H-pyrazolo[4,3-c]pyridin-1-yl)piperidin-1-yl)methyl)piperidin-1-yl)pyridazine-3-carboxamide], for which the Dmax is no less than 50%.

Turning to `N#Cc1ccc(O[C@H]2CC[C@H](NC(=O)c3ccc(N4CCC(CN5CCC(n6ccc7c(N8CCC(=O)NC8=O)nccc76)CC5)CC4)nn3)CC2)cc1C(F)(F)F` [EAR204, N-((1r,4r)-4-(4-Cyano-3-(trifluoromethyl)phenoxy)cyclohexyl)-6-(4-((4-(4-(2,4-dioxotetrahydropyrimidin-1(2H)-yl)-1H-pyrrolo[3,2-c]pyridin-1-yl)piperidin-1-yl)methyl)piperidin-1-yl)pyridazine-3-carboxamide], the Dmax was no less than 50%.

Consider `N#Cc1ccc(O[C@H]2CC[C@H](NC(=O)c3ccc(N4CCC(CN5CCC(n6ncc7c(N8CCC(=O)NC8=O)c(F)ccc76)CC5)CC4)nn3)CC2)cc1Cl` [EAR140, N-((1r,4r)-4-(3-Chloro-4-cyanophenoxy)cyclohexyl)-6-(4-((4-(4-(2,4-dioxotetrahydropyrimidin-1(2H)-yl)-5-fluoro-1H-indazol-1-yl)piperidin-1-yl)methyl)piperidin-1-yl)pyridazine-3-carboxamide, hydrochloride], for which the Dmax is no less than 50%.

In the case of `N#Cc1ccc(O[C@H]2CC[C@H](NC(=O)c3ccc(N4CCC(CN5CCC(n6ccc7c(N8CCC(=O)NC8=O)cccc76)CC5)CC4)cc3)CC2)cc1Cl` [EAR169, N-((1r,4r)-4-(3-chloro-4-cyanophenoxy)cyclohexyl)-4-(4-((4-(4-(2,4-dioxotetrahydropyrimidin-1(2H)-yl)-1H-indol-1-yl)piperidin-1-yl)methyl)piperidin-1-yl)benzamide], the Dmax is no less than 50%.

In the case of `N#Cc1ccc(O[C@H]2CC[C@H](NC(=O)c3ccc(N4CCC(CN5CCC(n6ccc7c(N8CCC(=O)NC8=O)ccnc76)CC5)CC4)nn3)CC2)cc1C(F)(F)F` [EAR212, N-((1r,4r)-4-(4-Cyano-3-(trifluoromethyl)phenoxy)cyclohexyl)-6-(4-((4-(4-(2,4-dioxotetrahydropyrimidin-1(2H)-yl)-1H-pyrrolo[2,3-b]pyridin-1-yl)piperidin-1-yl)methyl)piperidin-1-yl)pyridazine-3-carboxamide], the Dmax was no less than 50%.

Turning to `N#Cc1ccc(O[C@H]2CC[C@H](NC(=O)c3ccc(N4CC(CN5CCC(n6ncc7c(N8CCC(=O)NC8=O)cccc76)CC5)C4)nn3)CC2)cc1Cl` [EAR154, N-((1r,4r)-4-(3-Chloro-4-cyanophenoxy)cyclohexyl)-6-(3-((4-(4-(2,4-dioxotetrahydropyrimidin-1(2H)-yl)-1H-indazol-1-yl)piperidin-1-yl)methyl)azetidin-1-yl)pyridazine-3-carboxamide, formic acid salt], the Dmax is no less than 50%.

Turning to `CC(C)n1ccc2c(N3CCC(=O)NC3=O)cc(C(=O)N(C)CC3CCN(CCCOc4ccc(N5C(=S)N(c6ccc(C#N)c(C(F)(F)F)c6)C(=O)C5(C)C)cc4)CC3)cc21` [EAR93, N-((1-(3-(4-(3-(4-Cyano-3-(trifluoromethyl)phenyl)-5,5-dimethyl-4-oxo-2-thioxoimidazolidin-1-yl)phenoxy)propyl)piperidin-4-yl)methyl)-4-(2,4-dioxotetrahydropyrimidin-1(2H)-yl)-1-isopropyl-N-methyl-1H-indole-6-carboxamide formate], the Dmax was no less than 50%.

For `N#Cc1ccc(O[C@H]2CC[C@H](NC(=O)c3ccc(N4CCC(CN5CCC(n6ccc7c(N8CCC(=O)NC8=O)ncnc76)CC5)CC4)nn3)CC2)cc1Cl` [EAR119, N-((1r,4r)-4-(3-Chloro-4-cyanophenoxy)cyclohexyl)-6-(4-((4-(4-(2,4-dioxotetrahydropyrimidin-1(2H)-yl)-7H-pyrrolo[2,3-d]pyrimidin-7-yl)piperidin-1-yl)methyl)piperidin-1-yl)pyridazine-3-carboxamide], the Dmax was no less than 50%.

For `CN(CCCCCN1CCC(n2ncc3c(N4CCC(=O)NC4=O)cccc32)CC1)c1ccc(C(=O)N[C@H]2CC[C@H](Oc3ccc(C#N)c(Cl)c3)CC2)nn1` [EAR220, N-((1r,4r)-4-(3-chloro-4-cyanophenoxy)cyclohexyl)-6-((5-(4-(4-(2,4-dioxotetrahydropyrimidin-1(2H)-yl)-1H-indazol-1-yl)piperidin-1-yl)pentyl)(methyl)amino)pyridazine-3-carboxamide], the Dmax is no less than 50%.

As to `CC1(CN2CCC(n3ncc4c(N5CCC(=O)NC5=O)cccc43)CC2)CCN(c2ccc(C(=O)N[C@H]3CC[C@H](Oc4ccc(C#N)c(Cl)c4)CC3)nn2)CC1` [EAR242, N-((1r,4r)-4-(3-chloro-4-cyanophenoxy)cyclohexyl)-6-(4-((4-(4-(2,4-dioxotetrahydropyrimidin-1(2H)-yl)-1H-indazol-1-yl)piperidin-1-yl)methyl)-4-methylpiperidin-1-yl)pyridazine-3-carboxamide], the Dmax is no less than 50%.

Take `CC(C)n1ccc2c(N3CCC(=O)NC3=O)cc(C(=O)N(C)CC3CCN(CCC4CCN(c5ccc(N6C(=S)N(c7ccc(C#N)c(C(F)(F)F)c7)C(=O)C6(C)C)cc5)CC4)CC3)cc21` [EAR91, N-((1-(2-(1-(4-(3-(4-Cyano-3-(trifluoromethyl)phenyl)-5,5-dimethyl-4-oxo-2-thioxoimidazolidin-1-yl)phenyl)piperidin-4-yl)ethyl)piperidin-4-yl)methyl)-4-(2,4-dioxotetrahydropyrimidin-1(2H)-yl)-1-isopropyl-N-methyl-1H-indole-6-carboxamide]: the Dmax was no less than 50%.

For the compound `N#Cc1ccc(O[C@H]2CC[C@H](NC(=O)c3ccc(N4CCC(CN5CCC(n6ncc7c(N8CCC(=O)NC8=O)cccc76)CC5)CC4)nn3)CC2)cc1Cl` [EAR43, N-((1r,4r)-4-(3-Chloro-4-cyanophenoxy)cyclohexyl)-6-(4-((4-(4-(2,4-dioxotetrahydropyrimidin-1(2H)-yl)-1H-indazol-1-yl)piperidin-1-yl)methyl)piperidin-1-yl)pyridazine-3-carboxamide], the Dmax was no less than 50%.

Consider `N#Cc1ccc(O[C@H]2CC[C@H](NC(=O)c3ccc(N4CCC(CN5CCC(n6ccc7c(N8CCC(=O)NC8=O)cc(C(F)(F)F)cc76)CC5)CC4)nn3)CC2)cc1Cl` [EAR176, N-((1r,4r)-4-(3-chloro-4-cyanophenoxy)cyclohexyl)-6-(4-((4-(4-(2,4-dioxotetrahydropyrimidin-1(2H)-yl)-6-(trifluoromethyl)-1H-indol-1-yl)piperidin-1-yl)methyl)piperidin-1-yl)pyridazine-3-carboxamide], for which the Dmax was no less than 50%.

In the case of `N#Cc1ccc(O[C@H]2CC[C@H](NC(=O)c3ccc(N4CCC(CN5CC6(CC(n7ccc8c(N9CCC(=O)NC9=O)cccc87)C6)C5)CC4)nn3)CC2)cc1Cl` [EAR173, N-((1r,4r)-4-(3-Chloro-4-cyanophenoxy)cyclohexyl)-6-(4-((6-(4-(2,4-dioxotetrahydropyrimidin-1(2H)-yl)-1H-indol-1-yl)-2-azaspiro[3.3]heptan-2-yl)methyl)piperidin-1-yl)pyridazine-3-carboxamide], the Dmax was no less than 50%.

`N#Cc1ccc(O[C@H]2CC[C@H](NC(=O)c3ccc4c(c3)CN(C(=O)CN3CCC(n5ccc6c(N7CCC(=O)NC7=O)cccc65)CC3)C4)CC2)cc1Cl` [AR6, N-((1r,4r)-4-(3-Chloro-4-cyanophenoxy)cyclohexyl)-2-(2-(4-(4-(2,4-dioxotetrahydropyrimidin-1(2H)-yl)-1H-indol-1-yl)piperidin-1-yl)acetyl)isoindoline-5-carboxamide]: the Dmax was no less than 50%.

On to `N#Cc1ccc(O[C@H]2CC[C@H](NC(=O)c3cnc(N4CCC(CN5CCC(n6ccc7c(N8CCC(=O)NC8=O)cncc76)CC5)CC4)nc3)CC2)cc1C(F)(F)F` [AR17, N-((1r,4r)-4-(4-Cyano-3-(trifluoromethyl)phenoxy)cyclohexyl)-2-(4-((4-(4-(2,4-dioxotetrahydropyrimidin-1(2H)-yl)-1H-pyrrolo[2,3-c]pyridin-1-yl)piperidin-1-yl)methyl)piperidin-1-yl)pyrimidine-5-carboxamide], for which the Dmax was no less than 50%.
